The source of these data is US10538497B2, “Compounds as indoleamine 2,3-dioxygenase inhibitors” (Merck Sharp & Dohme Corp., priority 2015, dated 2020).

Broadly, the IC50 is the concentration that inhibits the measured activity by half.

Each structure is given as a SMILES string.

The target in test [1] is T1, IDO1 (Homo sapiens (Human), UniProt P14902). The experiment in a line: IDO1 Cellular Assay in Hela Cells Stimulated with IFNγ. It is filed as cell-based. The following applies: Hela cells stimulated with IFNγ 100 ng/mL; read-out: IDO1 HELA Cell Assay, IC50. As for the experimental part:
IDO1 Cellular Assay in Hela Cells Stimulated with IFNγ
Hela cells were cultured in complete Hela culture medium (90% EMEM, 10% heat-inactivated fetal bovine serum) and expanded to about 1×10^9 cells. The cells were then collected and frozen down at 10×10^6 cells/vial in 1 mL frozen medium (90% complete Hela culture medium, 10% DMSO)
Frozen Hela cells were thawed and transferred into Hela assay medium (99% complete Hela culture medium, 1% Pen/Strep) with 20 mL medium/vial of cells. The cells were spun down at 250 g in a table top centrifuge for 5 min and suspended in same volume of Hela assay medium. The cells were then counted and adjusted to a density of 2×10^5 cells/ml in Hela assay medium. Sterile L-tryptophan were added to the cells with final concentration of 300 uM L-tryptophan. A small aliquot (2 mL/plate) of Hela cells were set aside and were not treated with IFNγ, to serve as the Max-E control. The rest of Hela cells were added with sterile IFNγ (Cat #285-IF, R & D systems) with a final concentration of 100 ng/mL.
Hela cells with and without IFNγ were dispensed to the respective wells of 384-well assay plates containing the compounds. The plates were incubated for about 48 hours at a 37° C., 5% CO2 incubator. […] The plates were centrifuged for 1 min at 200×g. The resulting fluorescence was measured in a Spectramax plate reader (Molecular Devices) with a 400 nm excitation filter and a 510 nm emission filter.

Test [2] concerns the target T1, IDO1. Kind of test: IDO1 Enzyme Assay. The following applies: HIS-tagged recombinant IDO1, 40 nM.
Test [3] has as its target T1, IDO1. Kind of test: IDO1 Cellular Assay in Frozen HEK293 Cells Transiently Transfected with Human IDO1. In kind it is cell-based. The note with it: read-out: IDO1 HEK293 Cell Assay, IC50. As for the experimental part: IDO1 Cellular Assay in Frozen HEK293 Cells Transiently Transfected with Human IDO1
HEK293 cells were cultured in complete HEK293 culture medium (90% DMEM, 10% heat-inactivated fetal bovine serum). When reaching sub-confluent, the cells were trypsinized and neutralized with complete medium. […] Flag-IDO1 plasmid was added to the cell suspension at a concentration of 100 μg/mL. The cell-plasmid solutions were transferred to the OC-400 processing assembly (Maxcyte), 400 l/unit and the units were placed in a Maxcyte instrument to carry out flow electroporation for transfection. The cells were then transferred to a sterile 24-well cell culture plate to recover for 20-30 min at 37° C. in an incubator with 5% CO2.
Frozen HEK293/IDO1 and HEK293 WT cells were thawed and transferred into HEK293 assay medium (99% complete HEK293 culture medium, 1% Pen/Strep) with 20 mL medium/vial of cells. The cells were spun down at 250 g in a table top centrifuge for 5 min and suspended in same volume of HEK293 assay medium. […] Sterile L-tryptophan were added to the cells with final concentration of 300 μM.
HEK293/IDO1 and HEK293 WT cells were dispensed to the respective wells of 384-well assay plates containing the compounds. The plates were incubated for about 28-30 h at a 37° C., 5% CO2 incubator. […] The plates were centrifuged for 1 min at 200×g. The resulting fluorescence was measured in a Spectramax plate reader (Molecular Devices) with a 400 nm excitation filter and a 510 nm emission filter.

[4] abbreviates: read-out: IDO1 Enzyme Assay, IC50.
[5] abbreviates: HEK293 cells transiently transfected with human IDO1.

T1 sequence (P14902 whole entry): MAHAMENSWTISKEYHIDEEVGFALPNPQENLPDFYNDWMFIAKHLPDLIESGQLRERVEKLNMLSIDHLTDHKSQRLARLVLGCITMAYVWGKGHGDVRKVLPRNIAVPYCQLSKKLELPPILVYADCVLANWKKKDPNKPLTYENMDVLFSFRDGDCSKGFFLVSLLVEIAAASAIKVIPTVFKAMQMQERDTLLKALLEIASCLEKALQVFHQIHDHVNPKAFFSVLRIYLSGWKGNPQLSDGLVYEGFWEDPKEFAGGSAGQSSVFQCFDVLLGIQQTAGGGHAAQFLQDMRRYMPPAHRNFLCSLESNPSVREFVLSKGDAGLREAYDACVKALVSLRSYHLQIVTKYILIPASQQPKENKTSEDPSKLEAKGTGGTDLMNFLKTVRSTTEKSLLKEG

`O/N=C(\Nc1ccc(F)c(Br)c1)c1nonc1SC1CCNC1` (centres unmarked) [Example 66, N-(3-bromo-4-fluorophenyl)-N′-hydroxy-4-(pyrrolidin-3-ylsulfanyl)-1,2,5-oxadiazole-3-carboximidamide]: the IC50 on IDO1 [1] was determined as 92.3 nM; at IDO1 [2] (setting [4]) it was 28.3 nM; on IDO1 [3] (setting [5]), 67.7 nM.

With `CC(C)C(O)CCSc1nonc1/C(=N/O)Nc1ccc(F)c(Br)c1` (centres unmarked) [Example 54, N-(3-bromo-4-fluorophenyl)-N′-hydroxy-4-[(3-hydroxy-4-methylpentyl)sulfanyl]-1,2,5-oxadiazole-3-carboximidamide], the IC50 stood at 200 nM at IDO1 [1], 330 nM on IDO1 [2] (setting [4]) and 204 nM at IDO1 [3] (setting [5]).

Take `CC(=O)N1CCC(Sc2nonc2/C(=N/O)Nc2ccc(F)c(Br)c2)CC1` [Example 87, 4-[(1-acetylpiperidin-4-yl)sulfanyl]-N-(3-bromo-4-fluorophenyl)-N′-hydroxy-1,2,5-oxadiazole-3-carboximidamide]: the half-maximal inhibitory concentration (IC50) on IDO1 [1] worked out at 70 nM; on IDO1 [2] (setting [4]) it was 99.7 nM; on IDO1 [3] (setting [5]), 133 nM.

Take `O/N=C(\Nc1ccc(F)c(Br)c1)c1nonc1SC1CCNCC1` [Example 72, N-(3-bromo-4-fluorophenyl)-N′-hydroxy-4-(piperidin-4-ylsulfanyl)-1,2,5-oxadiazole-3-carboximidamide]: the figures for the concentration for half-maximal inhibition (IC50) on IDO1 [1], at IDO1 [2] (setting [4]) and at IDO1 [3] (setting [5]) were 283 nM, 87.8 nM and 231 nM, respectively.

Consider `NS(=O)(=O)NCCSc1nonc1/C(=N/O)Nc1ccc(F)c(Br)c1` [Example 3, (Z)—N-(3-Bromo-4-fluorophenyl)-N′-hydroxy-4-((2-(sulfamoylamino)ethyl)thio)-1,2,5-oxadiazole-3-carboximidamide], for which the figures for the IC50 on IDO1 [1], on IDO1 [2] (setting [4]) and on IDO1 [3] (setting [5]) were 72.4 nM, 79.5 nM and 56.9 nM, respectively.

Take `O/N=C(\Nc1ccc(F)c(Br)c1)c1nonc1SCC(O)c1ccccc1` (centres unmarked) [Example 74, N-(3-bromo-4-fluorophenyl)-N′-hydroxy-4-[(2-hydroxy-2-phenylethyl)sulfanyl]-1,2,5-oxadiazole-3-carboximidamide]: the IC50 on IDO1 [1] came to 388 nM; on IDO1 [2] (setting [4]), 503 nM; at IDO1 [3] (setting [5]), 579 nM.

Regarding `O/N=C(\Nc1ccc(F)c(Br)c1)c1nonc1SC1CNC1` [Example 26, (Z)-4-(azetidin-3-ylthio)-N-(3-bromo-4-fluorophenyl)-N′-hydroxy-1,2,5-oxadiazole-3-carboximidamide], the results for the half-maximal inhibitory concentration (IC50) at IDO1 [1], at IDO1 [2] (setting [4]) and on IDO1 [3] (setting [5]) were 104 nM, 74.8 nM and 174 nM, respectively.

In the case of `ON=C(Nc1ccc(F)c(Br)c1)c1nonc1SCC1CCCNC1` (centres unmarked) [Example 158, N-(3-bromo-4-fluorophenyl)-N′-hydroxy-4-[(piperidin-3-ylmethyl)sulfanyl]-1,2,5-oxadiazole-3-carboximidamide], the half-inhibitory concentration (IC50) at IDO1 [1] turned out to be 233 nM; on IDO1 [2] (IDO1 Enzyme Assay, IC50, nM), 95.7 nM; on IDO1 [3] (setting [5]) it was 72 nM.

On to `O=c1[nH]nc(CSc2nonc2/C(=N/O)Nc2ccc(F)c(Br)c2)[nH]1` [Example 34, N-(3-bromo-4-fluorophenyl)-N′-hydroxy-4-(((5-oxo-4,5-dihydro-1H-1,2,4-triazol-3-yl)methyl)thio)-1,2,5-oxadiazole-3-carboximidamide], for which the IC50 came to 40.2 nM on IDO1 [1], 64.9 nM on IDO1 [2] (setting [4]) and 188 nM at IDO1 [3] (setting [5]).

Regarding `CC(C)OC(=O)OCOP(=O)(CCSc1nonc1/C(=N/O)Nc1ccc(F)c(Br)c1)OCOC(=O)OC(C)C` [Example 10, (Z)-(((2-((4-(N-(3-bromo-4-fluorophenyl)-N′-hydroxycarbamimidoyl)-1,2,5-oxadiazol-3-yl)thio)ethyl)phosphoryl)bis(oxy))bis(methylene) diisopropyl bis(carbonate)], the IC50 on IDO1 [1] is 4160 nM; on IDO1 [2] (setting [4]), 136 nM; at IDO1 [3] (setting [5]), over 10000 nM.

Turning to `NS(=O)(=O)N1CCC(Sc2nonc2/C(=N/O)Nc2ccc(F)c(Br)c2)CC1` [Example 76, N-(3-bromo-4-fluorophenyl)-N′-hydroxy-4-[(1-sulfamoylpiperidin-4-yl)sulfanyl]-1,2,5-oxadiazole-3-carboximidamide], the IC50 at IDO1 [1] turned out to be 43.8 nM; on IDO1 [2] (setting [4]) it was 97.2 nM; on IDO1 [3] (setting [5]) it was 114 nM.

With `OCC(O)CSc1nonc1/C(=N/O)Nc1ccc(F)c(Br)c1` (single isomer, unassigned) [Example 63, N-(3-bromo-4-fluorophenyl)-4-[(2,3-dihydroxypropyl)sulfanyl]-N′-hydroxy-1,2,5-oxadiazole-3-carboximidamide], the half-inhibitory concentration (IC50) at IDO1 [1] was found to be 37.5 nM; on IDO1 [2] (IDO1 Enzyme Assay, IC50, nM), 46.1 nM; on IDO1 [3] (setting [5]), 53.2 nM.

On to `COC(=O)C1(Sc2nonc2/C(=N/O)Nc2ccc(F)c(Br)c2)CCC1` [Example 21, Methyl (Z)-1-((4-(N-(3-bromo-4-fluorophenyl)-N′-hydroxycarbamimidoyl)-1,2,5-oxadiazol-3-yl)thio)cyclobutane-1-carboxylate], for which the results for the IC50 at IDO1 [1] and on IDO1 [3] (setting [5]) were 242 nM and 524 nM, respectively.

Consider `CNC(=O)C1(CSc2nonc2/C(=N/O)Nc2ccc(F)c(Br)c2)CC1` [Example 69, 1-[({4-[N-(3-bromo-4-fluorophenyl)-N′-hydroxycarbamimidoyl]-1,2,5-oxadiazol-3-yl}sulfanyl)methyl]-N-methylcyclopropanecarboxamide], for which the 50% inhibitory concentration (IC50) on IDO1 [1] stood at 90.8 nM; at IDO1 [3] (setting [5]), 103 nM.

As to `O=c1c(NCCSc2nsnc2/C(=N/O)Nc2ccc(F)c(Br)c2)c(NCC2CC2)c1=O` [Example 210, N-(3-bromo-4-fluorophenyl)-4-{[2-({2-[(cyclopropylmethyl)amino]-3,4-dioxocyclobut-1-en-1-yl}amino)ethyl]sulfanyl}-N′-hydroxy-1,2,5-thiadiazole-3-carboximidamide], the IC50 on IDO1 [2] (setting [4]) was 166 nM; on IDO1 [3] (setting [5]), 1410 nM.

`CC(C)OC(=O)OCOP(=O)(CCCSc1nonc1/C(=N/O)Nc1ccc(F)c(Br)c1)OCOC(=O)OC(C)C` [Example 109, bis({[(1-methylethoxy)carbonyl]oxy}methyl) [3-({4-[N-(3-bromo-4-fluorophenyl)-N′-hydroxycarbamimidoyl]-1,2,5-oxadiazol-3-yl}sulfanyl)propyl]phosphonate]: the values for the IC50 on IDO1 [2] (setting [4]) and on IDO1 [3] (setting [5]) were 706 nM and 2430 nM, respectively.

With `O=c1c(NCCSc2nonc2/C(=N/O)Nc2ccc(F)c(Br)c2)c(NCC(O)CO)c1=O` (centres unmarked) [Example 75, N-(3-bromo-4-fluorophenyl)-4-{[2-({2-[(2,3-dihydroxypropyl)amino]-3,4-dioxocyclobut-1-en-1-yl}amino)ethyl]sulfanyl}-N′-hydroxy-1,2,5-oxadiazole-3-carboximidamide], the half-inhibitory concentration (IC50) at IDO1 [2] (setting [4]) is 23 nM; at IDO1 [3] (setting [5]) it was 1140 nM.

For the compound `O=c1c(NCCSc2nonc2/C(=N/O)Nc2ccc(F)c(Br)c2)c(NCc2ccncc2)c1=O` [Example 95, N-(3-bromo-4-fluorophenyl)-4-{[2-({3,4-dioxo-2-[(pyridin-4-ylmethyl)amino]cyclobut-1-en-1-yl}amino)ethyl]sulfanyl}-N′-hydroxy-1,2,5-oxadiazole-3-carboximidamide], the values for the IC50 at IDO1 [2] (setting [4]) and on IDO1 [3] (setting [5]) were 27.8 nM and 723 nM, respectively.

As to `O=P(CCSc1nonc1/C(=N/O)Nc1ccc(F)c(Br)c1)(Oc1ccccc1)Oc1ccccc1` [Example 101, diphenyl [2-({4-[N-(3-bromo-4-fluorophenyl)-N′-hydroxycarbamimidoyl]-1,2,5-oxadiazol-3-yl}sulfanyl)ethyl]phosphonate], the half-maximal inhibitory concentration (IC50) on IDO1 [2] (setting [4]) was found to be 764 nM; on IDO1 [3], 2240 nM.
